For data set [1], the system named is Streptococcus gordonii strain DL1. Nature of the data set: MIC assay, S. gordonii. The format is cell-based. Conditions: 5% CO2, 37° C., 20-24 hours. From the text:
(§1) Streptococcus mutans wild-type strain UA159 was provided by Dr. Bettina Buttaro from Temple University Medical School, Philadelphia, Pa. Streptococcus gordonii strain DL1 and Streptococcus sanguinis strain 10904 were provided by Dr. Robert G. Quivey from University of Rochester Medical School. Streptococcus gordonii strain DL1 may be obtained from the American Type Culture Collection under accession #49818. Streptococcus sanguinis strain 10904 may be obtained from the National Collection of Type Cultures under accession #10904. Bacteria were routinely maintained on in Bacto™ Todd-Hewitt (TH) agar plates and liquid cultures were grown in Bacto™ Todd-Hewitt broth (THB). For growth of biofilms, THB was supplemented with 0.1% sucrose. Incubation was stagnant at 37° C. Bacterial strains Methicillin-Resistant Staphylococcus aureus HPV107, Staphylococcus epidermidis Fussel [NCTC 11047, R. Hugh 2466], Streptococcus sobrinus SL1 [CCM 6070, CNCTC 9/89], Enterococcus faecalis NCTC 775 [DSM 20478, JCM 8726, NCDO 581, Tissier], Pseudomonas aeruginosa [CCEB 481, MDB strain BU 277, NCIB 8295, NCPPB 1965, NCTC 10332, NRRL B-771, R. Hugh 815], Serratia marcescens BS 303 [CDC 813-60, NCIB 9155, NCTC 10211], and Acinetobacter baumannii 2208 [81, DSM 6974] were purchased from the American Type Culture Collection.
(§2) Stock solutions of compounds (10 mM) were serial diluted (200 μL, 100 μL, 50 μL, 10 μL, and 2 μL) in THB media in flat-bottom 96-well microtiter plates (total volume 100 μL). Bacterial cultures were grown in brain heart infusion or nutrient broth media to mid-exponential phase, back diluted to an OD of 0.1 and then inoculated into the 96-well plate to reach a final volume of 200 μL. Plates were inoculated at 37° C. in 5% CO2 for 20-24 hours upon which time wells were evaluated visually for bacterial growth and/or the wells' OD630 was evaluated via spectrophotometer. […] DMSO controls corresponding to each test concentration were performed. Biological triplicates were performed to confirm results.

The subject of data set [2] is Streptococcus sanguinis strain 10904. Nature of the data set: MIC assay, S. sanguinis. The format is cell-based. Conditions: 5% CO2, 37° C., 20-24 hours.
Excerpt: as §1, §2

Data set [3] has as its system S. mutans. Nature of the data set: S. mutans MBC assay. Format: cell-based, Streptococcus mutans. Conditions: for bacteriostatic or bactericidal properties (regrow analysis, MIC vs MBC): S. mutans; for MBC: Streptococcus mutans, 3-log reduction in CFU count (99.9% bacterial death). The procedure:
MIC assay was performed (above) and each well diluted (log-dilution) into a new 96-well microtiter plate. Five μL from each dilution was then plated on THB agar plates and incubated for 24 hours. Colony counts were performed to determine MBC which is defined as the concentration which there is a 3-log reduction in CFU count which corresponds to 99.9% bacterial death.

The test system of data set [4] is Streptococcus mutans wild-type strain UA159. Nature of the data set: MIC assay, S. mutans. Format: cell-based.
Excerpt: as §1, §2

Data set [5] deals with S. mutans biofilm. The data set can be described thus: S. mutans biofilm model / crystal violet. The format is cell-based, Streptococcus mutans. Conditions: at concentrations of 250 μM or lower. The procedure: Stock solutions of the compounds (10 mM) were serial diluted in THB media supplemented with 0.1% sucrose (w/v) in flat-bottom 96-well microtiter plates (total volume 100 μL). Bacterial cultures were grown to mid-exponential phase, back diluted to an OD of 0.1 and then inoculated into the 96-well plate to reach a final volume of 200 μL. Plates were incubated at 37° C. in 5% CO2 for 24 hours (early stage biofilm) upon which time wells were evaluated visually for bacterial growth. DMSO controls corresponding to each test concentration were performed. Biological triplicates were performed to confirm results. Biofilm assay was performed (above) and wells are washed with 200 μL of DI H2O and dried for 24 hours at 37° C. Dried plates were incubated for 10 minutes at room temperature with 50 μL of 1% w/v crystal violet (25% ethanol in H2O). Excess crystal violet was removed via aspiration. 200 μL of DI H2O was added to each well and aspirated (repeat until all excess crystal violet is removed). Plates were then inverted and dried at 37° C. for 3-5 hours. Crystal violet stain biofilm mass was dissolved with 200 μL of 95% ethanol, 100 μL of which was then transferred to a fresh flat-bottom 96-well plate for absorbance measurements at 595 nm. DMSO controls corresponding to each test concentration were performed. Biological triplicate was performed to confirm results. […]

The test system of data set [6] is Streptococcus mutans wild-type strain UA159. The data set can be described thus: MIC assay, S. mutans. Format: cell-based. Conditions: read-out: MIC S. mutans, aerobic conditions.
Data set [7] shares this test system. Conditions: original assays in aerobic environment; cited from earlier work.
The test system of data set [8] is membrane. The data set can be described thus: SYTOX green cell permeabilization assay. The format is cell-based. Conditions: SYTOX green nucleic acid stain, FIGS. 1A-1F. On the procedure: This example was performed to measure cell viability (i.e., cell permeabilization) by using a molecule that fluoresces when bound to DNA. The assay performed was a SYTOX™ assay green nucleic acid stain using compounds 1H and 2E. Specifically, when the membrane was perturbed, the molecule entered the cell, bound to DNA and fluoresced. The positive and negative controls were a quaternary ammonium compound (QAC; 12,3,2,3,12) and vancomycin, respectively. See the results shown in, e.g., FIGS. 1A-1F.

The subject of data set [9] is red blood cells (mechanically defibrinated sheep blood). The data set can be described thus: Hemolysis assay (cell lysis). The format is cell-based. Set-up: red blood cell lysis: unit not given here. Conditions: for red blood cell lysis: 1 hour, 37° C.; for concentration at which the membrane is perturbed: stated under the cell lysis example. On the procedure:
The effects of the compounds described herein to lyse cells was evaluated in this example. Hemolysis assays were performed on mechanically defibrinated sheep blood (Hemostat Labs: DSB030). 1.5 mL of blood was placed into a microcentrifuge tube and centrifuged at 10,000 rpm for ten minutes. The supernatant was removed and then the cells were resuspended with 1 mL of phosphate-buffered saline (PBS). The suspension was centrifuged as previously, the supernatant was removed, and cells were resuspended two more times. The final cell suspension was diluted twentyfold with PBS. The twentyfold suspension dilution was then aliquoted into microcentrifuge tubes containing compound serially diluted in PBS. TritonX (1% by volume) served as a positive control (100% lysis marker) and sterile PBS served as a negative control (0% lysis marker). Samples were then placed in an incubator at 37° C. and shaken at 200 rpm. After 1 hour, the samples were centrifuged at 10,000 rpm for ten minutes. The absorbance of the supernatant was measured with a UV spectrometer at a 540 nm wavelength. See, e.g., Peng, Chem. Comm. 2011, 47, 4896-4898.

Setting [10] is: planktonic, 5% CO2, 37° C., 20-24 hours.
Setting [11] is: Concentration 500 μM, TritonX 100% lysis, PBS 0% lysis.

The term MIC denotes the least concentration at which growth counts as inhibited. Broadly, the MBC is the lowest tested concentration that kills the bacteria rather than only halting them.

Molecules are shown by their SMILES. In brackets after ≈: the same amount, converted by molar mass. Several values for one entry are separate records, joined by “and”; a condition that tells them apart may be missing. Equal entries are not always repeated. Where two headings read alike, the source gives them in different places.

`CC(C)(C)c1cc(-c2c(O)ccc3cc(Br)ccc23)cc(C(C)(C)C)c1O` [Compound B5, 6-Bromo-1-(3,5-di-tert-butyl-4-hydroxyphenyl)naphthalen-2-ol]: the minimum inhibitory concentration (MIC) was 16 µM (≈ 6.84 µg/mL) in data set [1], 4 µM (≈ 1.71 µg/mL) in data set [2] and 8 µM in data set [4] (setting [10]). In addition, the “bacteriostatic or bactericidal properties (regrow analysis, MIC vs MBC)” value in data set [3] is “bacteriostatic”. In addition, the MBC in [3] was found to be 125 µM (≈ 53.4 µg/mL).

In the case of `C=CCc1ccc(O)c(-c2ccc(O)c(CC=C)c2)c1` [Compound A1, honokiol, reference compound], the “inhibition of biofilm growth” value in data set [5] is listed as “unable to inhibit biofilm growth”. Besides, the MIC in data set [1] was 125 µM (≈ 33.3 µg/mL); in data set [2], 125 µM (≈ 33.3 µg/mL); in data set [4] (5% CO2-supplemented environment), 66.6 µg/mL; in data set [4] (setting [10]), 250 µM; in [6], 125 µM and 33.3 µg/mL. In addition, the bactericidal activity result in [3] (at concentrations of 250 μM or lower) is reported as “not bactericidal”. Also, the “MIC S. mutans, literature value” in [7] was 10 µg/mL (≈ 37.5 µM).

With `Cc1cc(-c2c(O)ccc3ccccc23)cc(C(C)(C)C)c1O` [Compound B9, 1-(3-(tert-Butyl)-4-hydroxy-5-methylphenyl)naphthalen-2-ol], the figures for the minimal inhibitory concentration (MIC) in data set [1], in data set [2] and in data set [4] (setting [10]) were 32 µM (≈ 9.8 µg/mL), 32 µM (≈ 9.8 µg/mL) and 32 µM, respectively. The MBC in data set [3] came to 32 µM (≈ 9.8 µg/mL).

In the case of `C=CCc1cc(-c2c(O)ccc3cc(Br)ccc23)cc(C(C)(C)C)c1O` [Compound B8, 1-(3-Allyl-5-(tert-butyl)-4-hydroxyphenyl)-6-bromonaphthalen-2-ol], the figures for the minimum inhibitory concentration (MIC) in data set [1], in data set [2] and in data set [4] (setting [10]) were 16 µM (≈ 6.58 µg/mL), 8 µM (≈ 3.29 µg/mL) and 16 µM, respectively. Also, the “bacteriostatic or bactericidal properties (regrow analysis, MIC vs MBC)” value in data set [3] was “bactericidal”. In addition, in [3], the MBC was 32 µM (≈ 13.2 µg/mL).

With `CC(C)(C)c1ccc(CCc2ccc(C(C)(C)C)c(O)c2)cc1O` [Compound C2, 5,5′-(Ethane-1,2-diyl)bis(2-(tert-butyl)phenol)], the MIC in data set [1] amounted to 1.25 µM (≈ 0.408 µg/mL); in data set [2], 2.5 µM (≈ 0.816 µg/mL); in data set [4] (setting [10]), 2 µM. For the same molecule, in data set [3], the “bacteriostatic or bactericidal properties (regrow analysis, MIC vs MBC)” value is on record as “bactericidal”. This molecule displayed a minimum bactericidal concentration (MBC) in [3] of 4 µM (≈ 1.31 µg/mL). The “concentration at which the membrane is perturbed” value in data set [8] and in data set [9] was 32 µM each time. For the same molecule, in data set [9], the “lysis of blood cells” value is on record as “lyses blood cells at high concentrations”. Further, the “red blood cell lysis” value in data set [9] (Concentration 0.25 μM) is 0.02; in [9] (Concentration 0.5 μM) it was 0.01; in data set [9] (Concentration 1 μM), −0.02; in [9] (Concentration 2 μM) it was −0.02; in [9] (Concentration 4 μM), −0.01; in [9] (Concentration 8 μM) it was −0.03. The “red blood cell lysis” value in data set [9] (Concentration 16 μM) was −0.03; in data set [9] (Concentration 32 μM), 0.07; in [9] (Concentration 63 μM), 0.29; in data set [9] (Concentration 125 μM) it was 0.43; in [9] (Concentration 250 μM), 0.70; in [9] (setting [11]), 0.48.

In the case of `CCCc1cc(-c2c(O)ccc3cc(OC)ccc23)cc(C(C)(C)C)c1O` [Compound B11, 1-(3-(tert-Butyl)-4-hydroxy-5-propylphenyl)-6-methoxynaphthalen-2-ol], the MIC in data set [1] is 16 µM (≈ 5.83 µg/mL); in data set [2], 8 µM (≈ 2.92 µg/mL); in [4] (setting [10]), 16 µM. Further, the “bacteriostatic or bactericidal properties (regrow analysis, MIC vs MBC)” value in data set [3] is given as “bactericidal”. Further, the minimum bactericidal concentration (MBC) in [3] turned out to be 63 µM (≈ 23 µg/mL).

`CC(C)(C)c1ccc(Cc2ccc(C(C)(C)C)c(O)c2)cc1O` [Compound 3N, 5,5′-methylenebis(2-(tert-butyl)phenol)]: in [4] (setting [10]), the minimal inhibitory concentration (MIC) came to 2 µM. In addition, the “concentration at which the membrane is perturbed” value in data set [8] and in data set [9] was 32 µM in each case. In addition, the “red blood cell lysis” value in data set [9] (Concentration 0.25 μM) was 0.13; in data set [9] (Concentration 0.5 μM) it was −0.02; in [9] (Concentration 1 μM), −0.02; in data set [9] (Concentration 2 μM), −0.02; in [9] (Concentration 4 μM), 0.11; in data set [9] (Concentration 8 μM) it was −0.03. For the same molecule, the “red blood cell lysis” value in [9] (Concentration 16 μM) is −0.02; in data set [9] (Concentration 32 μM) it was 0.02; in data set [9] (Concentration 63 μM) it was 0.38; in data set [9] (Concentration 125 μM) it was 0.43; in data set [9] (Concentration 250 μM), 0.34; in [9] (setting [11]), 0.74.

As for `COC(=O)c1cc2c(-c3cc(C(C)C)c(O)c(C(C)C)c3)c(O)ccc2cc1O` [Compound B10, Methyl 3,7-dihydroxy-8-(4-hydroxy-3,5-diisopropylphenyl)-2-naphthoate], the results for the MIC in data set [1], in data set [2] and in data set [4] (setting [10]) were 8 µM (≈ 3.16 µg/mL), 8 µM (≈ 3.16 µg/mL) and 32 µM, respectively. In data set [3], this molecule returned a minimal bactericidal concentration (MBC) of 32 µM (≈ 12.6 µg/mL).

With `Cc1cc(O)c(C)c(O)c1-c1cc(C(C)(C)C)c(O)c(C(C)(C)C)c1` [Compound A2, 3′,5′-Di-tert-3,6-methyl-[1,1′-biphenyl]-2,4,4′-triol], the MIC in data set [1] worked out at 32 µM (≈ 11 µg/mL); in data set [2], 32 µM (≈ 11 µg/mL); in data set [4] (setting [10]), 32 µM. Moreover, in data set [3], the MBC was found to be 63 µM (≈ 21.6 µg/mL).

Consider `Cc1cc(-c2cc(C)c(O)c(C(C)(C)C)c2)c(C(C)C)cc1O` [Compound A7], for which the minimum inhibitory concentration (MIC) in data set [1] was 16 µM (≈ 5 µg/mL); in [2] it was 32 µM (≈ 10 µg/mL); in data set [4] (setting [10]) it was 32 µM. Besides, in data set [3], the minimal bactericidal concentration (MBC) is 32 µM (≈ 10 µg/mL).
